Drawing on PubChem BioAssay (NCI), this text covers GI50 and TGI for nine molecules.

Among the test systems are SNB-19 CNS; ACHN renal; HCT-15 colon; DU-145 prostate; SK-OV-3 ovarian; HCT-116 colon; MALME-3M melanoma; SF-539 CNS.
Test in all cases: growth of human tumour cells (NCI), 48 h

SMILES strings stand for the structures.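 Cells were grown in 96-well plates and exposed to each compound for 48 hours at five concentrations; endpoints were interpolated linearly between bracketing concentrations, or set to the highest concentration if not reached. The concentration for 50% growth inhibition is given as GI50. At the TGI there is no net growth.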 Bounds are passed on as bounds.

As to `Cc1cccc2c1NC(=O)[C@@H](NC(=O)[C@H](CCC(F)(F)F)[C@H](CCC(F)(F)F)C(N)=O)N=C2c1cccc(F)c1`, the GI50 in the assay with SNB-19 CNS was 17 µM; in the assay with ACHN renal it was 45.1 µM; with HCT-15 colon it was more than 100 µM; in the assay on DU-145 prostate it was 71.4 µM; in the assay with SK-OV-3 ovarian, 28.7 µM; with HCT-116 colon, 51.2 µM. The GI50 was 50 µM in the assay with MALME-3M melanoma and 18.4 µM in the assay with SF-539 CNS. Besides, the TGI in the assay on SNB-19 CNS was 41 µM; in the assay with ACHN renal it was more than 100 µM; with HCT-15 colon it was more than 100 µM; with DU-145 prostate, more than 100 µM; in the assay on SK-OV-3 ovarian it was 91.3 µM; in the assay with HCT-116 colon, more than 100 µM. Moreover, the results for the TGI in the assay with MALME-3M melanoma and in the assay on SF-539 CNS were more than 100 µM and 41.8 µM, respectively.

Turning to `CN1CCN(C(=O)OCc2nc3c(N4CCOCC4)nc(-c4ccccc4)nc3n2C)CC1`, the GI50 in the assay on SNB-19 CNS is 1.45 µM; in the assay on ACHN renal, 0.544 µM; with HCT-15 colon, 0.317 µM; in the assay on DU-145 prostate, 1.19 µM; in the assay on SK-OV-3 ovarian, 2.97 µM; in the assay on HCT-116 colon it was 0.207 µM. The GI50 in the assay with MALME-3M melanoma is 1.44 µM; in the assay on SF-539 CNS, 1.33 µM. The TGI with SNB-19 CNS is 2.78 µM; in the assay on ACHN renal it was 1.77 µM; in the assay with HCT-15 colon, 1.26 µM; with DU-145 prostate, 2.48 µM; in the assay with SK-OV-3 ovarian, 9.13 µM; in the assay with HCT-116 colon it was 0.648 µM. Besides, the TGI worked out at 2.8 µM in the assay on MALME-3M melanoma and 2.6 µM in the assay on SF-539 CNS.

For `CO[C@@H]1[C@H](N(C)C(=O)c2ccccc2)C[C@@H]2O[C@]1(C)n1c3ccccc3c3c4c(c5c6ccccc6n2c5c31)C(=O)NC4=O`, the GI50 with SNB-19 CNS was more than 100 µM; in the assay on ACHN renal, 0.838 µM; with HCT-15 colon, 0.766 µM; in the assay on DU-145 prostate it was 6.81 µM; in the assay with SK-OV-3 ovarian, 1.67 µM; in the assay with HCT-116 colon, 0.638 µM. In addition, the GI50 in the assay on MALME-3M melanoma was 0.732 µM; in the assay on SF-539 CNS, 1.08 µM. Further, the TGI with SNB-19 CNS, in the assay on ACHN renal, with HCT-15 colon, in the assay on DU-145 prostate, in the assay on SK-OV-3 ovarian and in the assay with HCT-116 colon was more than 100 µM in each case. For the same molecule, the TGI with MALME-3M melanoma was more than 100 µM; with SF-539 CNS it was 59.8 µM.

Consider `O=C1/C(=C\c2ccc(Cl)cc2)CN(C(=O)c2ccccc2)C/C1=C\c1ccc(Cl)cc1`, for which the GI50 in the assay with SNB-19 CNS is 3.27 µM; in the assay on ACHN renal, 2.73 µM; in the assay with HCT-15 colon, 1.86 µM; in the assay on DU-145 prostate, 4.12 µM; in the assay with SK-OV-3 ovarian it was 4.64 µM; in the assay with HCT-116 colon, 0.337 µM. The GI50 was 9.17 µM in the assay on MALME-3M melanoma and 2.15 µM with SF-539 CNS. Also, the TGI was 19.3 µM in the assay with SNB-19 CNS; 8.17 µM in the assay on ACHN renal; 5.03 µM in the assay with HCT-15 colon; more than 56.4 µM in the assay with DU-145 prostate; 32.3 µM in the assay on SK-OV-3 ovarian; 1.04 µM with HCT-116 colon. For the same molecule, the TGI amounted to 51.7 µM in the assay with MALME-3M melanoma and 5.13 µM in the assay with SF-539 CNS.

Consider `O=C(CSc1nc2ccc([N+](=O)[O-])cc2[nH]1)Nc1ccc([N+](=O)[O-])cc1`, for which the GI50 with SNB-19 CNS was 3.02 µM; in the assay with ACHN renal, 2.49 µM; in the assay on HCT-15 colon, 2.93 µM; in the assay with DU-145 prostate, 3.51 µM; in the assay with SK-OV-3 ovarian, 1.89 µM; with HCT-116 colon it was 2.7 µM. The GI50 is 1.88 µM in the assay on MALME-3M melanoma and 2.96 µM in the assay on SF-539 CNS. Further, the TGI in the assay on SNB-19 CNS is 18 µM; in the assay on ACHN renal, 8.02 µM; with HCT-15 colon it was 17.6 µM; with DU-145 prostate, 15.6 µM; in the assay with SK-OV-3 ovarian it was 5.59 µM; with HCT-116 colon it was more than 32.6 µM. For the same molecule, the results for the TGI in the assay on MALME-3M melanoma and in the assay with SF-539 CNS were 8.1 µM and 11.9 µM, respectively.

For the molecule `N#C/C(=C\c1ccc([N+](=O)[O-])cc1)n1nnc2cc(F)c(F)cc21`, the GI50 in the assay with SNB-19 CNS is 2.96 µM; in the assay with ACHN renal, 1.74 µM; in the assay on HCT-15 colon it was 1.93 µM; in the assay with DU-145 prostate it was 1.72 µM; in the assay on SK-OV-3 ovarian, 2.85 µM; in the assay with HCT-116 colon it was 1.54 µM. The GI50 was 2.08 µM with MALME-3M melanoma and 1.74 µM in the assay with SF-539 CNS. Also, the TGI with SNB-19 CNS is 10.4 µM; with ACHN renal it was 3.11 µM; in the assay with HCT-15 colon it was 5.44 µM; in the assay with DU-145 prostate it was 3.14 µM; in the assay on SK-OV-3 ovarian, 11.4 µM; in the assay on HCT-116 colon, 3.01 µM. Also, the TGI amounted to 5.3 µM in the assay on MALME-3M melanoma and 3.27 µM in the assay with SF-539 CNS.

Take `COc1ccc(/C=C/C(=O)c2ccc(B(O)O)cc2)cc1O`: the GI50 is 18.7 µM with SNB-19 CNS; 22.1 µM in the assay with ACHN renal; 4.95 µM with HCT-15 colon; 6.21 µM with DU-145 prostate; 22.2 µM in the assay on SK-OV-3 ovarian; 2.64 µM in the assay with HCT-116 colon. For the same molecule, the results for the GI50 with MALME-3M melanoma and with SF-539 CNS were 32.3 µM and 12.5 µM, respectively. The TGI was more than 64.3 µM in the assay with SNB-19 CNS; more than 84.7 µM in the assay on ACHN renal; more than 39.3 µM in the assay with HCT-15 colon; 28.9 µM in the assay with DU-145 prostate; more than 89.1 µM in the assay on SK-OV-3 ovarian; 10.1 µM in the assay with HCT-116 colon. Further, the figures for the TGI in the assay on MALME-3M melanoma and with SF-539 CNS were more than 100 µM and more than 79.6 µM, respectively.

Turning to `O=C(O)c1cc(C(=O)C(=O)c2cc(C(=O)O)c(O)c3ccccc23)c2ccccc2c1O`, the TGI in the assay with SNB-19 CNS, in the assay on ACHN renal, in the assay on HCT-15 colon, in the assay with DU-145 prostate, in the assay with SK-OV-3 ovarian and in the assay with HCT-116 colon was more than 100 µM throughout. The TGI in the assay with MALME-3M melanoma and in the assay with SF-539 CNS was more than 100 µM in each case.

As to `COc1ccc(-c2nc(Nc3ccc(F)cc3)nc(Nc3ccc4c(c3)nc(C)n4Cc3ccccc3)n2)cc1`, the GI50 with SNB-19 CNS was 6.9 µM; with ACHN renal, 3.13 µM; with HCT-15 colon, 2.95 µM; in the assay with DU-145 prostate it was 7.59 µM; in the assay on SK-OV-3 ovarian, 10.1 µM; with HCT-116 colon, 3 µM. The values for the GI50 with MALME-3M melanoma and with SF-539 CNS were 4.32 µM and 4.99 µM, respectively. Also, the TGI in the assay with SNB-19 CNS, with ACHN renal, with HCT-15 colon, with DU-145 prostate, with SK-OV-3 ovarian and in the assay with HCT-116 colon was more than 100 µM each time. For the same molecule, the TGI with MALME-3M melanoma and in the assay with SF-539 CNS was more than 100 µM in each case.
